Measured values published in PubChem BioAssay (NCI).
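Five compound concentrations were applied to cells in 96-well plates for 48 hours; endpoints were derived by simple linear interpolation of the resulting dose-response curve. GI50 is the concentration that inhibits growth by half. The concentration for full growth arrest is given as TGI.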

Columns and labels:
Experiment in all cases: NCI-60 cell line screen, 48 h
UACC-62 melanoma = test system: UACC-62 melanoma
OVCAR-8 ovarian = test system: OVCAR-8 ovarian
SNB-19 CNS = test system: SNB-19 CNS
HCT-116 colon = test system: HCT-116 colon
HOP-92 NSCLC = test system: HOP-92 NSCLC
MALME-3M melanoma = test system: MALME-3M melanoma
A498 renal = test system: A498 renal
UO-31 renal = test system: UO-31 renal
MDA-MB-231 breast = test system: MDA-MB-231 breast
MDA-MB-435 = test system: MDA-MB-435

SMILES	TGI (UACC-62 melanoma) [µM]	TGI (OVCAR-8 ovarian) [µM]	TGI (SNB-19 CNS) [µM]	TGI (HCT-116 colon) [µM]	TGI (HOP-92 NSCLC) [µM]	TGI (MALME-3M melanoma) [µM]	TGI (A498 renal) [µM]	TGI (UO-31 renal) [µM]	GI50 (OVCAR-8 ovarian) [µM]	GI50 (MDA-MB-231 breast) [µM]	TGI (MDA-MB-231 breast) [µM]	GI50 (SNB-19 CNS) [µM]	GI50 (HCT-116 colon) [µM]	GI50 (HOP-92 NSCLC) [µM]	GI50 (A498 renal) [µM]	GI50 (UO-31 renal) [µM]	GI50 (UACC-62 melanoma) [µM]	GI50 (MDA-MB-435) [µM]	TGI (MDA-MB-435) [µM]	GI50 (MALME-3M melanoma) [µM]
Cn1c2ccccc2c2ncc3[nH]c4ccccc4c3c21	41.7	52.7	> 100	26	56.8	> 100	36.7	26.9												
COc1cccc2c1C(=O)c1c(O)c3c(c(O)c1C2=O)C[C@@](O)(/C(C)=N/NC(=O)c1ccc(Cl)cc1)C[C@@H]3OC1CC(N)C(O)C(C)O1 (some centres undefined)		3.02	1.9	1.49	0.751		0.625	4.55	0.268	0.603	2.77	0.162	0.147	0.192	0.129	0.488				
Cc1cc(N(CCCNc2ccnc3cc(Cl)ccc23)Cc2ccc3c(c2)OCO3)nc(N2CCOCC2)n1	0.501	25.6	> 100	0.882					0.312	0.303	1.37	0.325	0.245				0.217	0.37	1.78	
CCN(CC)CCSc1c2ccccc2nc2c(OC)ccc(OC)c12	> 22.2	12	> 100	17.7	7.57	> 60.9	32.5	33.9												
COc1ccc(Cn2c(N)c(S(=O)(=O)c3ccc(Cl)cc3)c3nc(C#N)c(C#N)nc32)cc1	17.8	> 50	> 50	> 50	> 50			> 50	7.55	3.1	20.9	18	> 50	11.1		32.6	4.36	> 50	> 50	
CSc1ccccc1C#C/C=C\C#Cc1ccccc1N	34.9	> 100	> 100	16.9			14.5	> 100	35.8	4.69	22.2	22.2	4.58		4.18	17	7.83	0.982	2.49	
O=C(Nc1ccc(Cl)c(C(F)(F)F)c1)c1ccc(NC2=C(Cl)C(=O)N(Cc3ccccc3)C2=O)cc1	30.2	> 100	> 100	27.2	14.7				3.66	17.1	31	29.2	13.9	4.34			16.6	19.1	36.8	
Clc1nc(Cl)nc(Nc2cccc3ccccc23)n1	> 100	> 100	> 100	> 100		> 100	> 100	> 100	> 100	63.9	> 100	> 100	47.1		> 100	26.5	82.5	43.6	> 100	76.9
O=[P@@]1(c2ccccc2)O[C@H](COCc2ccccc2)[C@@H](OCc2ccccc2)[C@H](OCc2ccccc2)[C@H]1NCc1ccccc1	13.1	> 100	> 100	> 100			8.99		3.24	3.22	> 100	3.71	2.74		2.39		2.92	2.92	> 100	
CC(C)(C)[Si](C)(C)OC1C(=O)C[C@H]2CCCC[C@@H]12 (some centres undefined)	> 100	> 100	> 100	> 100	> 100	> 100	> 100	> 100												
COc1ccc(-c2cc(/C=C/C(=O)c3ccc(OC)c(OC)c3)[nH]n2)cc1	3.35	10.4	5.28	2.48		3.45	3.55	2.44	2.16	2	6.63	1.88	1.01		1.42	1.17	1.65	1.84	3.88	1.62
CC(=O)N1CCC(=O)/C(=C/c2ccccc2)C1	82.7	99.3	> 100	32.2	> 100	> 100	> 100	> 100												
COC(=O)c1cc2c(s1)-c1nccc3c1c(nc1ccccc13)C2=O	> 100	48.4	> 100	> 100		59.5	> 100	> 100	19.1	28.6	> 100	> 100	> 100		> 100	> 100	> 100	17.7	32	16.4
C[Si](C)(C)/C(I)=C/CO	52.9	86.5	64.7	27.5	54.5	74.9	> 100	71.5												
CS/C(=C(\S)c1ccccc1)c1ccccc1	> 100	> 100	> 100	> 100	> 100	> 100	> 100	> 100												
CN(C)CCSc1cc(-c2ccccc2)c2ccccc2n1	9.45	58.5	28.5	20.4		26	33	23			24								22.1	
O=c1[nH]c2ccc(O)cc2o1	> 100	> 100	> 100	> 100		> 100	> 100	> 100			> 100									
CC(C)=CCc1cc2c(cc1O)OC[C@H]1c3cc4c(cc3O[C@@H]21)OCO4	> 100	> 100	> 100	32.2	> 100			> 100			> 100								91.9	
Cc1ccc(S(=O)OCc2c(C)c(C)c(COS(=O)c3ccc(C)cc3)c(C)c2C)cc1 (centres undefined)	> 100	> 100	> 100	> 100	> 100	> 100	> 100	> 100												
Cc1nc2cc(Nc3nc(Nc4ccc(F)cc4)nc(-c4cccs4)n3)ccc2n1Cc1ccccc1		19	> 100	13.3			73.3	17.5	3.54	3.48	16.2	5.29	3.35		5.41	3.75		3.85	35.2	
O=C1CCC(=O)c2c1c(O)c1ccncc1c2O	20.1	25.3	89.2	27.9	38.1	29.4		31.4												
CCOC(=O)c1ccc(N=Nc2cc(C(=O)OCC)ccc2O)cc1	> 100	> 100		> 100	> 100		> 100	> 100												
C[Si](C)(C)/C(Br)=C\CCN1C(=O)CCC1=O	> 100	> 100	> 100	> 100	> 100	> 100	> 100	> 100												
CC(C(=O)O)c1cccc(Oc2ccccc2)c1 (centres undefined)	> 100	> 100	> 100	> 100		> 100	> 100	> 100	> 100	> 100	> 100	> 100	> 100		> 100	> 100	> 100	> 100	> 100	> 100
COC(=O)c1s/c(=N\C(=S)N(C)C)n(-c2ccc(Cl)cc2)c1C(=O)OC	> 10	> 100	> 100	> 100		> 100	> 100	> 100												
CCOC(=O)c1c(-c2ccc(OC)cc2)c(C#N)c2c(C#N)c(N)nn2c1N	15.2	> 100	22.5	19.4		82.7	7.88	90	4.27	3.63	23.2	4.01	4.35		1.73	3.49	2.47	0.613	2.89	4.05
COC12OCCN(C)C1=CC(=O)C1=NNC(C)C12 (centres undefined)	> 100	> 100		> 100	> 100		> 100	> 100												
C[C@]12CCC(=O)C=C1CC[C@@H]1C2CC[C@]2(C)Nc3[nH]ncc3CC12 (some centres undefined)	> 100	> 100		> 100		> 100	> 100	> 100												
[N-]=[N+]=N/C1=C/CCCCC(=O)C1	> 100	> 100	> 100		> 100	> 100		> 100												
Cn1cc(-c2csc(-c3c[nH]c4ccc(Br)cc34)n2)c2cnccc21			> 100	3.11	8.37	3.96	> 100			2.34	5.55	3.67	1.56	2.98	12.6					2.23
